System: healthy subjects
Assay: Phase 1 healthy volunteer study, single oral dose: treatment-emergent adverse events
Assay type: in vivo, human
Procedure: A Phase 1 randomized, double-blind, placebo-controlled study to evaluate the effect of psilocybin on cognitive and emotional processing as compared to placebo in healthy volunteers was conducted. The study investigated the short-term (Day 7) and long-term (Day 28) effects of moderate (10 mg) and high doses (25 mg) of psilocybin on key domains of cognition, such as episodic memory, attention, working and spatial memory, social cognition and elements of executive function, including cognitive flexibility.
90 healthy subjects were studied. Approximately 50% of the subjects were psilocybin-naïve. For subjects with prior psilocybin experience, the last exposure was at least 1 year prior to the signing of the Informed Consent Form (ICF). Approximately 50% of the subjects were female. Subjects were stratified by sex and age (18-35 years old; >35 years old).
Each subject was assigned 1 treatment bottle containing 5 capsules packaged in a double-blind fashion, depending on the randomized treatment arm, the bottle contained one of the following: • a. Psilocybin 10 mg: 2×5-mg oral psilocybin capsules plus 3× placebo capsules • b. Psilocybin 25 mg: 5×5-mg oral psilocybin capsules • c. Placebo: 5× placebo capsules
Each 5-mg oral psilocybin capsule comprised 5 mg crystalline psilocybin in the form of Polymorph A, 12.5 mg of SMCC 50, 79.5 mg of SMCC 90, 1 mg sodium starch glycolate, 1 mg colloidal silicon dioxide, and 1 mg sodium stearyl fumarate
Adverse events: Throughout the course of the study, all AEs were monitored and recorded. Each AE was classified according to the following criteria: • i. […] Moderate: The AE produces some impairment of functioning, but is not hazardous to the subject's health. • iii. Severe: The AE produces significant impairment of functioning or incapacitation and is a definite hazard to the subject's health.
Selected Adverse Events of included: • (a) Euphoric mood • (b) Dissociative disorder • (c) Hallucination • (d) Psychotic disorder • (e) Cognitive disorder • (f) Disturbance in attention • (g) Altered mood • (h) Impairment of psychomotor skills • (i) Inappropriate affect • (j) Overdose • (k) Intentional product misuse • (l) Illusion
For example, drug-induced hepatitis that resolved without evidence of hepatic failure would not be considered life threatening even though drug-induced hepatitis can be fatal. • (c) Inpatient hospitalization or prolongation of existing hospitalization. • (d) Persistent or significant disability/incapacity. • (e) Congenital anomaly/birth defect in the offspring of a subject who received psilocybin. • (f) Other: Important medical events that may not result in death, be life-threatening, or require hospitalization, may be considered an SAE when, based upon appropriate medical judgment, they may jeopardize the subject and may require medical or surgical intervention to prevent one of the outcomes listed in this definition. […] Visits:
Visit 3 (V3): Drug Administration (Day 0): The subject was asked to eat a light breakfast at least two hours prior to coming to the clinic for study drug administration. On Day 0 (V3), the subject underwent the SSTS, had vital signs obtained, medications reviewed, AEs recorded and eligibility reviewed prior to being randomized to study drug. The study drug was administered to up to six subjects simultaneously in individual beds separated by a curtain. The subject was invited to put on eyeshades and headphones, lie down and listen to calming music for the rest of the session (six hours). The subject was supported 1:1 with a chaperone and supervised by the study psychiatrist and lead therapist.
Recording of adverse events and prior/concomitant medication was performed at each visit.
During administration of psilocybin, each subject received one on one support from a trained assisting therapist and each dosing session was supervised by a study psychiatrist and a lead therapist. […]

## CN(C)CCc1c[nH]c2cccc(OP(=O)(O)O)c12 [psilocybin]
10 mg
  Infections and infestations, worst severity Severe: N (%): 0
  Infections and infestations: Events: 4
  Investigations, worst severity Mild: Events: 2
  Investigations, worst severity Moderate: Events: 0
  Investigations, worst severity Moderate: N (%): 0
  Investigations, worst severity Severe: Events: 0
  Investigations, worst severity Severe: N (%): 0
  Investigations: Events: 2
  Mental fatigue: Events: 0
  Mental fatigue: N (%): 0
  Mood altered, worst severity Mild: Events: 2
  Mood altered, worst severity Moderate: Events: 8
  Mood altered, worst severity Severe: Events: 9
  Mood altered, worst severity Severe: N (%): 6 (20.0)
  Mood altered: Events: 23
  Musculoskeletal and connective tissue disorders, worst severity Mild: Events: 0
  Musculoskeletal and connective tissue disorders, worst severity Mild: N (%): 0
  Musculoskeletal and connective tissue disorders, worst severity Moderate: Events: 1
  Musculoskeletal and connective tissue disorders, worst severity Severe: Events: 0
  Musculoskeletal and connective tissue disorders, worst severity Severe: N (%): 0
  Musculoskeletal and connective tissue disorders: Events: 1
  Nausea: Events: 1
  Nervous system disorders, worst severity Mild: Events: 23
  Nervous system disorders, worst severity Moderate: Events: 8
  Nervous system disorders, worst severity Moderate: N (%): 6 (20.0)
  Nervous system disorders, worst severity Severe: Events: 0
  Nervous system disorders, worst severity Severe: N (%): 0
  Nervous system disorders: Events: 35
  Paraesthesia, worst severity Mild: Events: 4
  Paraesthesia, worst severity Moderate: Events: 0
  Paraesthesia, worst severity Moderate: N (%): 0
  Paraesthesia, worst severity Severe: Events: 0
  Paraesthesia, worst severity Severe: N (%): 0
  Paraesthesia: Events: 4
  Psychiatric disorders, worst severity Mild: Events: 6
  Psychiatric disorders, worst severity Moderate: Events: 29
  Psychiatric disorders, worst severity Severe: Events: 21
  Respiratory, thoracic and mediastinal disorders: Events: 0
  Respiratory, thoracic and mediastinal disorders: N (%): 0
  Somatic hallucination, worst severity Mild: Events: 1
  Somatic hallucination, worst severity Moderate: Events: 7
  Somatic hallucination, worst severity Severe: Events: 0
  Somatic hallucination, worst severity Severe: N (%): 0
  Somatic hallucination: Events: 8
  Tension headache, worst severity Mild: Events: 1
  Tension headache, worst severity Moderate: Events: 2
  Tension headache, worst severity Severe: Events: 0
  Tension headache, worst severity Severe: N (%): 0
  Tension headache: Events: 3
  Tension headache: N (%): 3 (10.0)
  Time perception altered, worst severity Mild: Events: 1
  Time perception altered, worst severity Moderate: Events: 1
  Time perception altered, worst severity Severe: Events: 0
  Time perception altered, worst severity Severe: N (%): 0
  Time perception altered: Events: 2
10 mg and 25 mg
  Incidence of Illusion, Hallucination (visual), Mood altered, Headache, Fatigue and Euphoric mood compared to placebo: higher
10 mg and 25 mg arms
  Majority of the severe TEAEs (system organ class): psychiatric disorders
10 mg and 25 mg, 12-week study
  Serious adverse events or adverse events that led to withdrawal: no serious adverse events or adverse events that led to withdrawal
10 mg psilocybin (n = 30)
  Reported 'Mood altered' events: Being less judgmental: 1
  Reported 'Mood altered' events: Calm: 0
  Reported 'Mood altered' events: Clarity of thought: 0
  Reported 'Mood altered' events: Contemplative state: 1
  Reported 'Mood altered' events: Feeling more moody/sensitive: 1
  Reported 'Mood altered' events: Feeling of adrenaline release: 0
  Reported 'Mood altered' events: Feeling rested: 1
  Reported 'Mood altered' events: Increased compassion: 0
  Reported 'Mood altered' events: Increased creativity: 0
  Reported 'Mood altered' events: Increased empathy: 2
  Reported 'Mood altered' events: Increased sense of connectedness: 0
  Reported 'Mood altered' events: Increased wit: 1
  Reported 'Mood altered' events: Introspection: 5
  Reported 'Mood altered' events: Laughter: 1
  Reported 'Mood altered' events: More socially upbeat: 0
  Reported 'Mood altered' events: Negative mood: 0
  Reported 'Mood altered' events: Reflections: 3
  Reported 'Mood altered' events: Saw themselves from a new perspective: 0
  Reported 'Mood altered' events: Sense of oneness: 4
  Reported 'Mood altered' events: Sense of openness: 1
  Reported 'Mood altered' events: Unusual appreciation of music: 0
10 mg, listed as Psilocybin
  Any TEAE: % of subjects: (96.7) %
25 mg
  AEs potentially related to study treatment, % of AEs in arm: 95.9%
  Affect lability, worst severity Mild: Events: 2
  Affect lability, worst severity Moderate: Events: 1
  Affect lability, worst severity Severe: Events: 0
  Affect lability, worst severity Severe: N (%): 0
  Affect lability: Events: 3
  Affect lability: N (%): 3 (10.0)
  Any Selected TEAE: % of subjects: (90.0) %
  Any Selected TEAE: N (%): 27
  Any TEAE leading to death: Events: 0
  Any TEAE leading to death: N (%): 0
  Any TEAE leading to study discontinuation: Events: 0
  Any TEAE leading to study discontinuation: N (%): 0
  Any TEAE related to study treatment: % of subjects: (96.7) %
  Any TEAE related to study treatment: N (%): 29
  Any TEAE, worst severity Mild: Events: 14
  Any TEAE, worst severity Mild: N (%): 3 (10.0)
  Any TEAE, worst severity Moderate: Events: 52
  Any TEAE, worst severity Severe: Events: 29
  Any TEAE: % of subjects: 96.7%
  Any serious TEAE related to study treatment: Events: 0
  Any serious TEAE related to study treatment: N (%): 0
  Any serious TEAE: Events: 0
  Any serious TEAE: N (%): 0
